How the values were obtained:
[1] = target: Human CB1 Receptor-1b (hCB1b) (Homo sapiens (Human), UniProt P21554); test: hCB1b Gai cyclic AMP (cAMP) TR-FRET assay, antagonism of EC80 CP55940 with forskolin; format: cell-based; conditions: hCB1b cells, 30 min pre-incubation, read-out: CB1b IC50
Procedure, shortened: (§1)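 Cells expressing hCB1 or hCB1b were preincubated with compound for 30 min at rt, then stimulated with an EC80 concentration of CP55940 plus forskolin for 20 min at 37C. cAMP was measured by TR-FRET using Eu-cAMP and 650-labeled anti-cAMP in lysis buffer, with emission at 620/665 nm. IC50 values are binned by category.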

[2] = Pharmacokinetics following oral administration in male C57BL/6 mice: brain/plasma ratio; format: in vivo; conditions: single PO 10 mg/kg, compared to rimonabant 10 mg/kg PO
Protocol: FIG. 2 provides graphs showing the brain/plasma ratio of orally administered Compound 9 (10 mg/kg) in comparison to orally administered rimonabant (10 mg/kg) C57BL/6J in mice, as measured by area under the curve from 0 to 24 hours (AUC0-24) and maximum concentration (Cmax) post administration.
Example 5. Pharmacokinetics of Following Oral Administration in Male C57BL/6 Mice
A study was conducted to compare the brain/plasma ratios of Compound 9 and rimonabant following oral administration in mice.
Fasted overnight with free access to water and fed 4 hr post dosing
PO administration via oral gavage
Group 2: PO, 10 mg/kg, 10 mL/kg
0.5% MC (400 cp) in purified water (1 mg/mL)
Terminal sampling for brain @0.25, 0.5, 1, 2, 4, 8 and 24 hr, 7 time points. (N=3/timepoint, N=21/arm); collect brains after perfusion.

[3] = target: Human CB1 Receptor-1 (hCB1) (Homo sapiens (Human), UniProt P21554); test: hCB1 Gai cyclic AMP (cAMP) TR-FRET assay, antagonism of EC80 CP55940 with forskolin; format: cell-based; conditions: hCB1 cells, 30 min pre-incubation
Procedure, shortened: as §1

Sequence of Human CB1 Receptor-1 (hCB1) (P21554 whole entry): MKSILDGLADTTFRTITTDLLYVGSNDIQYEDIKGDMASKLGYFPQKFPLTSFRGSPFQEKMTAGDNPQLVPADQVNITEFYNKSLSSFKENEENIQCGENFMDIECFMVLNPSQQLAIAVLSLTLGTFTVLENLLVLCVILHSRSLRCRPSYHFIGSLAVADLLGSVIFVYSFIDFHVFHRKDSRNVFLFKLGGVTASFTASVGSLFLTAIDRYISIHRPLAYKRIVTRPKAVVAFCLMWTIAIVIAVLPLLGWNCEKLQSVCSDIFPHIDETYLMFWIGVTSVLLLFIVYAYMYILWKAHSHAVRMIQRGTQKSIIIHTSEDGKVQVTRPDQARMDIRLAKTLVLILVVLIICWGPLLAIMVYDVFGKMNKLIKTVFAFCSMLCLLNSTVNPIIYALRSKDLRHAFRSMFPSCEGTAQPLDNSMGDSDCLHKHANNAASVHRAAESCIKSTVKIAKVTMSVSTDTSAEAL
Sequence of Human CB1 Receptor-1b (hCB1b) (P21554 other isoform, or with tags, fused parts or gaps): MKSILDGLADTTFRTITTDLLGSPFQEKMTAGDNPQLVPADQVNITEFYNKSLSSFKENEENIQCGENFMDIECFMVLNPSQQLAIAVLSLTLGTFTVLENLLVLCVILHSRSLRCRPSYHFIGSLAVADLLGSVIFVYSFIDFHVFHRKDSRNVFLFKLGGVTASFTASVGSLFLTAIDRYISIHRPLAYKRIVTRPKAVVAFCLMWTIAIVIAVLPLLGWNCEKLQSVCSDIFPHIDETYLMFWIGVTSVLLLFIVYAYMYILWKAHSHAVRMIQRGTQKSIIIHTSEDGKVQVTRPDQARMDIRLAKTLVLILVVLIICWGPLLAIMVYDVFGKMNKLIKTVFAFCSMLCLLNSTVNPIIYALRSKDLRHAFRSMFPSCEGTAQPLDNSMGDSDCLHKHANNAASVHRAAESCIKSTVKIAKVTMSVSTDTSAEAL

Row | Structure (SMILES) | IC50 [1] [nM] | blood-brain-barrier penetration (brain/plasma ratio by AUC0-24 and Cmax) [2] | IC50 [3] [nM]
1 | NS(=O)(=O)CCNC(=NS(=O)(=O)c1ccc(C(F)(F)F)cc1)N1C[C@H](c2ccccc2)C(c2ccc(Cl)cc2)=N1 [Compound 9, (S,E)-3-(4-chlorophenyl)-4-phenyl-N-(2-sulfamoylethyl)-N′-((4-(trifluoromethyl)phenyl)sulfonyl)-4,5-dihydro-1H-pyrazole-1-carboximidamide] | < 100 | substantially reduced blood-brain-barrier penetration as compared to rimonabant | < 100
2 | NS(=O)(=O)CCNC(=NS(=O)(=O)c1cccnc1)N1C[C@H](c2ccccc2)C(c2ccc(Cl)cc2)=N1 [Compound 65, (S)-3-(4-chlorophenyl)-4-phenyl-N′-(pyridin-3-ylsulfonyl)-N-(2-sulfamoylethyl)-4,5-dihydro-1H-pyrazole-1-carboximidamide] | < 100 |  | < 100
3 | C[C@H](CN/C(=N\S(=O)(=O)c1ccc(C(F)(F)F)cc1)N1C[C@H](c2ccccc2)C(c2ccc(F)cc2)=N1)S(N)(=O)=O (single isomer, unassigned) [Compound 47] | < 100 |  | < 100
4 | NS(=O)(=O)[C@H]1C[C@H](N/C(=N/S(=O)(=O)c2ccc(Cl)cc2)N2C[C@H](c3ccccc3)C(c3ccc(Cl)cc3)=N2)C1 (single isomer, unassigned) [Compound 115] | < 100 |  | < 100
5 | NS(=O)(=O)N[C@H]1C[C@@H](N/C(=N\S(=O)(=O)c2ccc(C(F)(F)F)cc2)N2C[C@H](c3ccccc3)C(c3ccc(Cl)cc3)=N2)C1 (single isomer, unassigned) [Compound 245] | < 100 |  | 100 to 500

— patent US20250248973A1, “CANNABINOID RECEPTOR 1 ANTAGONISTS/INVERSE AGONISTS AND USES THEREOF” (Corbus Pharmaceuticals, Inc., priority 2022, published 2025)
